Data from paper PMC8907375, “Arylated analogues of cypronazole: fungicidal effect and activity on human fibroblasts. Docking analysis and molecular dynamics simulations” (Natural Products and Bioprospecting, 2022).
Values after ≈ are worked out from the molar mass of the structure shown. Values joined by “and” are separate entries in the source; they are usually repeats but may differ in a detail not shown here. Identical values can stand only once.

Experiments:
B. cinerea = test: In vivo antifungal activity on infected grapes under greenhouse conditions; set-up: species or system Botrytis cinerea on Vitis vinifera grapes; conditions: 7 days; for Efficacy (preventive rate) against B. cinerea on grapes: 2.5 µg/mL; for Efficacy (control effectiveness) against B. cinerea on grapes: 12.5 μg/mL
Method: The potential usefulness of compound 4 against B. cinerea was assessed under greenhouse conditions using infected grapes (in vivo), at 7 days of exposure. The compound was evaluated at 2.5 μg/mL and 12.5 μg/mL, CPZ was used as positive control (at 12.5 μg/mL). […] The blank control (untreated grapes) was completely affected by B cinerea (100% incidence) (Fig. 4).
The in vivo activity was determined on the Vitis vinifera grapes inoculated with a Botrytis cinerea conidia suspension. Appropriate amounts of the tested compounds were dissolved in DMSO and then suspended in the distilled water (DMSO concentration < 2%).
Healthy grapes, previously washed with a diluted solution of sodium hypochlorite, were punctured with 100 ⎧L of a solution of compound 4 (concentration of 12.5 ⎧g/mL and 2.5 ⎧g/mL) and evaporated at room temperature (~ 25 °C) during 24 h to favour the penetration of the compound. The same procedure was carried out with CPZ and the control blank (< 2% DMSO solution). The grapes epidermis was punctured with a sterile inoculation needle (Ø, 4.5 mm), 200 µL of the pathogen was inoculated at a concentration of 5.10^4 UFC/mL. The fruits were incubated at 20 °C to favour fungal growth, and fungal growth was assessed 7 days later. CPZ was used as positive control under the same conditions. The control effectiveness of the target compound was calculated as (1 − c/d) × 100, where c is the diameter of the treatment and d is the diameter of the blank control (˂ 2% DMSO solution).

[1] = tested on: B. cinerea (isolated from grapes); test: In vitro antifungal activity, broth microdilution (MIC100); type: cell-based, Botrytis cinerea; conditions: B. cinerea
Method: (§1) Fungal growth was assessed at six concentrations (3.1–100 μg/mL), using enriched Czapek broth in the presence of triazole 1-8 (Fig. 2). Each treatment was carried out in triplicate. The Minimum Inhibitory Concentration (MIC100) was determined and was defined as the minimum concentration required to inhibit the complete fungal growth inhibition under the conditions of the assay. Triadimefon (TDM) and cyproconazole (CPZ) were used as positive control. In order to evaluate the efficacy of the new compounds to control fungi affecting vineyards, imperfect fungi isolated from infected grapes from the province of San Juan in Argentina were employed. Significant differences were determined by t-Student hypothesis test p, at 95% confidence. In general, moderate to good activity was observed compared to the reference compounds as well as some selectivity against microorganisms.
(§2) The imperfect fungi used for the assays included Botrytis cinerea isolated from grapevine samples, Aspergillus fumigatus (ATTC 26934), A. niger (ATCC 9029), A. ustus (PN-S4), A. japonicus (M15C), A. terreus (M16C) and Fusarium oxysporum (M15-Pa) isolated from soil samples from the province of San Juan, Argentina. The microorganisms were grown on Czapek-yeast extract agar (CYA) prepared with yeast extract, K2HPO4, saccharose, agar, distilled water and enriched with a solution of mineral salts (NaNO3, KCl, MgSO4.7H2O and FeSO4.7 H2O). Inocula were adjusted to 1–5 × 10^4 colony forming units (CFU/ mL).
(§3) The minimum inhibitory concentration (MIC) of each compound was evaluated using broth microdilution techniques in 96-well microtiter plates according to the guidelines of the National Committee for Clinical Laboratory Standards for filamentous fungi M 38 A. The starting inoculum was 1–5 × 10^4 CFU/mL in accordance with the Clinical and Laboratory Standards Institute (CLSI, formerly the National Committee for Clinical Laboratory Standards [NCCLS]) (M27-A3 document for yeasts, and M38-A2 document for filamentous fungi).
(§4) Microtiter plates were incubated at 30 °C for Aspergillus and Fusarium, and 22 °C for B. cinerea in a moist and dark chamber. MIC values were recorded after 48 h for Aspergillus and Fusarium spp., and after 72 h for B. cinerea, according to the fungal growth control. TDM and CPZ were used as positive controls (12.5–50 μg/mL). Stock solutions were two-fold diluted with RPMI from 1000 to 0.98 μg/mL (final volume equal to 100 μL), and a final DMSO concentration ≤ 1%. An inoculum suspension (100 μL) was added to each well with the exception of the sterility control. Endpoints were defined as the lowest compound concentration resulting in total growth inhibition (MIC100) compared to the growth in control wells. MICs values ≤ 50 μg/mL were considered of interest. The assay was carried out in triplicate.

A. japonicus (M15C) = test: as above; type: cell-based, Aspergillus japonicus; conditions: 48 h; for Fungicidal activity MIC100, AJ: A. japonicus, 30 °C, total growth inhibition
Method: as §1, §2, §3, §4

[2] = tested on: human lung fibroblasts MRC-5; test: Cytotoxicity, neutral red uptake assay; type: cell-based; conditions: MRC-5 fibroblasts, 24 h exposure, neutral red uptake; ± SD; read-out: Cytotoxicity IC50
Method: (§5) The cytotoxic effect of the compounds, expressed as cell viability, was assessed on a permanent fibroblast cell line derived from human lung (MRC-5) (ATCC CCL-171). MRC-5 fibroblasts were grown as monolayers in minimum essential Eagle medium (MEM) with Earle’s salts, 2 mM l-glutamine and 2.2 g/L sodium bicarbonate, supplemented with 10% heat inactivated fetal bovine serum (FBS), 100 IU/mL penicillin and 100 µg/mL streptomycin in a humidified incubator with 5% CO2 in the air at 37 °C. Cell passage was maintained between 10 and 16. The medium was changed every 2 days.
(§6) Confluent cultures of MRC-5 fibroblasts were treated with medium containing the compounds at concentrations ranging from 0 to 1000 µM. For comparison purposes, the commercial antifungals CPZ and TDM were used as references, the products were first dissolved in DMSO and then in MEM, supplemented with 2% FBS. The final content of DMSO in the test medium and controls was 1%. Cells were exposed for 24 h to the test medium with or without the compound (control). Each concentration was tested in quadruplicate together with the control, and repeated three times in separate experiments. At the end of the incubation, the neutral red uptake (NRU) assay was carried out. To calculate the IC50 values (concentration that produces a 50% inhibitory effect on the evaluated parameter), the results were transformed to percentage of controls and the IC50 values were graphically obtained from the dose–response curves.

[3] = tested on: Aspergillus fumigatus (ATTC 26934); test: In vitro antifungal activity, broth microdilution (MIC100); type: cell-based; conditions: A. fumigatus, 30 °C, 48 h, total growth inhibition
Method: as §1, §2, §3, §4

[4] = tested on: Fusarium oxysporum (M15-Pa); test: as above; type: cell-based; conditions: 30 °C, 48 h, total growth inhibition
Method: as §1, §2, §3, §4

A. terreus (M16C) = test: as above; type: cell-based, Aspergillus terreus; conditions: 48 h; for Fungicidal activity MIC100, AT: A. terreus, 30 °C, total growth inhibition
Method: as §1, §2, §3, §4

A. niger (ATCC 9029) = test: as above; type: cell-based, Aspergillus niger; conditions: 48 h, total growth inhibition; for Fungicidal activity MIC100, AN: 30 °C
Method: as §1, §2, §3, §4

A. ustus (PN-S4) = test: as above; type: cell-based, Aspergillus ustus; conditions: 30 °C, 48 h, total growth inhibition
Method: as §1, §2, §3, §4

B. cinerea hyphae = test: Effect on B. cinerea hyphal morphology (optical microscopy); type: cell-based, Botrytis cinerea; conditions: 12.5 μg/mL
Method: Changes in the hyphae morphology of B. cinerea treated with compound 4 were observed using optical microscopy.
The same procedure was carried out with CPZ and blank control (< 2% DMSO solution).

[5] = Cytotoxicity, neutral red uptake assay; type: cell-based, human; conditions: human
Method: as §5, §6

[6] = 22 °C, 72 h, total growth inhibition

1-(4-chlorophenyl)-3-cyclopropyl-2-(1H-1,2,4-triazol-1-yl)butan-1-ol [CPZ, reference compound]
Efficacy (preventive rate) against B. cinerea on grapes (B. cinerea): 38.3%
Efficacy (control effectiveness) against B. cinerea on grapes (B. cinerea): 75.3%
Fungicidal activity MIC100, BC [1, 6]: 12.5 ± 0.8 µg/mL
Fungicidal activity MIC100, AJ (A. japonicus (M15C)): 25 ± 1.3 µg/mL
IC50 [2]: 267 ± 18.7 µM
Fungicidal activity MIC100, AF [3]: 25 µg/mL and 25 ± 1.4 µg/mL
Fungicidal activity MIC100, F [4]: ≥ 100 µg/mL
Fungicidal activity MIC100, AT (A. terreus (M16C)): 15.0 µg/mL and 15 ± 0.9 µg/mL
Fungicidal activity MIC100, AN (A. niger (ATCC 9029)): 25 ± 1.5 µg/mL
Fungicidal activity MIC100, AU (A. ustus (PN-S4)): 15 ± 0.7 µg/mL

CC(C1CC1)C(O)(Cn1cncn1)c1ccc(-c2ccc(F)cc2)cc1 (stereo not shown) [Compound 4, 3-Cyclopropyl-2-(4’-fluorobiphenyl-4-yl)-1-(1H-1,2,4-triazol1-yl)butan-2-ol]
Hyphal morphology of B. cinerea (B. cinerea hyphae): morphological alterations, including irregular hyphae, variable diameter and the presence of internal vacuoles
Efficacy (preventive rate) against B. cinerea on grapes (B. cinerea): 50.6%
Efficacy (control effectiveness) against B. cinerea on grapes (B. cinerea): 100%
Fungicidal activity MIC100, BC [1, 6]: 12.5 ± 0.9 µg/mL
MIC100 (complete growth inhibition) ([1]; Botrytis cinerea, 22 °C, 72 h, total growth inhibition, read-out: Fungicidal activity MIC100, BC): 12.5 µg/mL (≈ 35.6 µM)
MIC ([1]; Botrytis cinerea, molar conversion of the µg/mL value, read-out: MIC100 against B. cinerea expressed): 35.5 µM (≈ 12.5 µg/mL)
MIC (A. japonicus (M15C); read-out: Fungicidal activity MIC100, AJ): 15 µg/mL (≈ 42.7 µM)
Fungicidal activity MIC100, AJ (A. japonicus (M15C)): 15 ± 0.7 µg/mL
IC50 at 24 h [5]: 61.1 ± 3.7 µM
Fungicidal activity MIC100, AF [3]: 12.5 ± 0.8 µg/mL
Minimum inhibitory concentration (MIC100) ([3]; Aspergillus fumigatus, read-out: Fungicidal activity MIC100, AF): 12.5 µg/mL (≈ 35.6 µM)
MIC100 (minimum concentration for complete growth inhibition) ([4]; Fusarium oxysporum, F. oxysporum, read-out: Fungicidal activity MIC100, F): ≥ 100 µg/mL
Fungicidal activity MIC100, AT (A. terreus (M16C)): 10 ± 0.4 µg/mL
MIC100 (complete growth inhibition) (A. terreus (M16C); Aspergillus terreus, read-out: Fungicidal activity MIC100, AT, A. terreus, 30 °C, total growth inhibition): 10 µg/mL (≈ 28.5 µM)
Fungicidal activity MIC100, AN (A. niger (ATCC 9029)): 10 ± 0.5 µg/mL
MIC100 (complete growth inhibition) (A. niger (ATCC 9029); Aspergillus niger, ATCC9029, 30 °C, read-out: Fungicidal activity MIC100, AN): 10 µg/mL (≈ 28.5 µM)
Fungicidal activity MIC100, AU (A. ustus (PN-S4)): 14 ± 0.7 µg/mL
MIC100 (complete growth inhibition) (A. ustus (PN-S4); Aspergillus ustus, read-out: Fungicidal activity MIC100, AU): 14 µg/mL (≈ 39.8 µM)
